Read-outs that look alike come from different tables or passages of the source.
Columns and labels:
[1] = target: T1, PI3K-C2α (Homo sapiens, UniProt O00443); assay: PI 3-kinase lipid kinase assay with recombinant GST-PI3K-C2α, PtdIns as substrate; format: biochemical
T1 construct: made in house; host or cells: Sf9 insect cells (baculovirus, pAcGex vector)
Procedure: Typically, PI 3-kinase assays were performed in a total volume of 50 μl containing 20 mM Hepes pH7.4. 100 mM NaCl, 0.1 mM EGTA, 0.1% β-mercaptoethanol, and 200 μM phosphoinositide. After preincubating sonicated lipid with sample for 10 minutes, the reactions were initiated upon the addition of 2.5 mM MgCl2, 100 mM ATP (0.2 μCiγ[^32 P] ATP). Assays were incubated at 30° C. for 20 minutes and terminated with acidified chloroform:methanol. The extracted lipid products were analysed by thin layer chromatography using Silica gel 60 plates and chloroform:methanol:4M ammonium hydroxide (45:35:10) for assays examining phosphorylation of Ptdlns. When separations of PtdIns 3P, PtdIns (3,4) P2 and PItdIns (3,4,5) P3 was required, propan-1-ol: 2M acetic acid (65:35) was used. Phosphorylated lipids were visualised by either autoradiography or by phosphoimage analysis (Molecular Dynamics).
The enzymatic activity and substrate specificity were investigated and compared to that of GST-p110α expressed in the same system.
(§1) The effect of these inhibitors on the lipid kinase activity of PI3K-C2α was examined, using PtdIns as a substrate, in the presence of increasing concentrations of each inhibitor.

[2] = target: p110α (UniProt P32871); assay: PI 3-kinase lipid kinase assay with recombinant GST-p110α, PtdIns as substrate; format: biochemical
Procedure: Typically, PI 3-kinase assays were performed in a total volume of 50 μl containing 20 mM Hepes pH7.4. 100 mM NaCl, 0.1 mM EGTA, 0.1% β-mercaptoethanol, and 200 μM phosphoinositide. After preincubating sonicated lipid with sample for 10 minutes, the reactions were initiated upon the addition of 2.5 mM MgCl2, 100 mM ATP (0.2 μCiγ[^32 P] ATP). Assays were incubated at 30° C. for 20 minutes and terminated with acidified chloroform:methanol. The extracted lipid products were analysed by thin layer chromatography using Silica gel 60 plates and chloroform:methanol:4M ammonium hydroxide (45:35:10) for assays examining phosphorylation of Ptdlns. When separations of PtdIns 3P, PtdIns (3,4) P2 and PItdIns (3,4,5) P3 was required, propan-1-ol: 2M acetic acid (65:35) was used. Phosphorylated lipids were visualised by either autoradiography or by phosphoimage analysis (Molecular Dynamics). Assays were linear with respect to time and enzyme addition.
as §1

T1 sequence (O00443 148-1686): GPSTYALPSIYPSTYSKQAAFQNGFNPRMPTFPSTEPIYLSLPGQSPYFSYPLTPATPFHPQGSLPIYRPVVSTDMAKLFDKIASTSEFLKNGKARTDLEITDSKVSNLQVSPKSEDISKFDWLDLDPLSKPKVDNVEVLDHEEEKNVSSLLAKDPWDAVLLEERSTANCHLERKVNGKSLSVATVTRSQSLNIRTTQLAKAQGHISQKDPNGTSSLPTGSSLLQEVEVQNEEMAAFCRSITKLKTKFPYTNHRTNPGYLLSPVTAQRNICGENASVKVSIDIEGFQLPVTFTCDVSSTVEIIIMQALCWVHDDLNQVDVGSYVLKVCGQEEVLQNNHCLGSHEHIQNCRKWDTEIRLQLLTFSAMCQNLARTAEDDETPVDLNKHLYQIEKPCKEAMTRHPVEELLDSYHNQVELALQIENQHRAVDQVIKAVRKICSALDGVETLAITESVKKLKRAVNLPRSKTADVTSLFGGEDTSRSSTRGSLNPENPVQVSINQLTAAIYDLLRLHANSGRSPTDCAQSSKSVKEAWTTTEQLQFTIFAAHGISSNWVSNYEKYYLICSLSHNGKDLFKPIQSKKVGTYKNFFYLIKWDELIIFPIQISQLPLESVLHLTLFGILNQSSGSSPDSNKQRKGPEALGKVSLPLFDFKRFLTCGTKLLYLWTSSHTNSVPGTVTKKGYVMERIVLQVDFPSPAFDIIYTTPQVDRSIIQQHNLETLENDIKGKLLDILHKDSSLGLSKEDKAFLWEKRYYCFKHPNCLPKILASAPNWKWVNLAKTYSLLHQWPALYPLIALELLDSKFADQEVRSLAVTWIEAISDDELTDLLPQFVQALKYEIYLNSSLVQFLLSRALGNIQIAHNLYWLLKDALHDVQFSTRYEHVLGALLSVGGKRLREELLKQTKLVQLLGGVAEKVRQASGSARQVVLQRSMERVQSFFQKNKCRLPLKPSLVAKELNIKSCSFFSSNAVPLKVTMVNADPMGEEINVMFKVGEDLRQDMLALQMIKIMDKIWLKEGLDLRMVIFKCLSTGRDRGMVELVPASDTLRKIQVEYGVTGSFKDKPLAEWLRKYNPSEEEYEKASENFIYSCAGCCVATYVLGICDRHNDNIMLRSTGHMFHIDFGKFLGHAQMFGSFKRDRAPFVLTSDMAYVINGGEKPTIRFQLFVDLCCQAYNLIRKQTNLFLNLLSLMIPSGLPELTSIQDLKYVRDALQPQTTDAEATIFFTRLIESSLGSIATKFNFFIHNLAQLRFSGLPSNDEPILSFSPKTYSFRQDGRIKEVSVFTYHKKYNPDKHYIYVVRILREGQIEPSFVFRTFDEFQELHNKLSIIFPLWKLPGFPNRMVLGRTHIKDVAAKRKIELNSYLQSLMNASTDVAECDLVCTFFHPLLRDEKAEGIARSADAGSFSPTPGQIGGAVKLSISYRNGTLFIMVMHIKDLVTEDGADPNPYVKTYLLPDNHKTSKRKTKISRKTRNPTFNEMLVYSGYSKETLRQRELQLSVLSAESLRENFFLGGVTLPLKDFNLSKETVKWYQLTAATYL

| IC50 [1] [nM] | difference in sensitivity between PI3K-C2α and p110α ([1]; LY294002, PI3K-C2α less sensitive than p110α) | concentration giving maximal attenuation of PI3K-C2α lipid kinase activity ([1]; LY294002, PtdIns substrate) [mM] | concentration giving maximal inhibition of p110α ([2]; LY294002, FIG. 5B) [µM] | Structure (SMILES) | IC50 ([1]; Wortmannin, PtdIns substrate, FIG. 5A) [nM] | IC50 ([2]; read-out: IC50 of p110α lipid kinase activity, Wortmannin, FIG. 5A) [nM] |
| --- | --- | --- | --- | --- | --- | --- |
| 20000 | approximately one order of magnitude | 2 | 300 | O=c1cc(N2CCOCC2)oc2c(-c3ccccc3)cccc12 [LY294002, 2-(4-morpholinyl)-8-phenyl-4H-1-benzopyran-4-one] | – | – |
| – | – | – | – | COC[C@H]1OC(=O)c2coc3c2[C@@]1(C)C1=C(C3=O)[C@@H]2CCC(=O)[C@@]2(C)C[C@H]1OC(C)=O [Wortmannin] | 200 | 3 |

— US6770467B2, “Screening method for ligands with class II P13 kinase modulating activity” (Ludwig Institute for Cancer Research, priority 1997, dated 2004)
